The text below walks through data of patent US5182283A, “Heterocyclic compounds their preparation and use” (Novo Nordisk A/S, priority 1990, dated 1993).

Where a name gives a salt, the structure may show the parent alone. Read-outs that look alike come from different tables or passages of the source.

The target of data set [1] is muscarinic acetylcholine receptors. In words: inhibition of specific binding of ^3 H-Oxotremorine-M (^3 H-Oxo) in rat cortex. More on the design: species or system male Wistar rats. Conditions: read-out: Inhibition in vitro OXO BINDING (IC50, concentration which inhibits the specific binding of ^3 H-Oxo by 50%), ^3 H-Oxotremorine 1.0 nM, 30 min at 25° C., pH 7.4, 25-75% inhibition needed for calculation. As to the method: The pharmacological properties of the compounds of the invention can be illustrated by determining their capability to inhibit the specific binding of ^3 H-Oxotremorine-M (^3 H-Oxo).
^3 H-Oxo labels muscarinic receptor in the CNS (with a preference for agonist domaines of the receptors). Three different sites are labelled by ^3 H-Oxo. […] Using the present experimental conditions only the high and medium affinity sites are determined.
The inhibitory effects of compounds on ^3 H-Oxo binding reflects the affinity for muscarinic acetylcholine receptors.
All preparations are performed at 0°-4° C. unless otherwise indicated. Fresh cortex (0.1-1 g) from male Wistar rats (150-250 g) is homogenized for 5-10 s in 10 ml 20 mM Hepes pH: 7.4, with an Ultra-Turrax homogenizer. The homogenizer is rinsed with 10 ml of buffer and the combined suspension centrifuged for 15 min at 40,000×g. The pellet is washed three times with buffer. In each step the pellet is homogenized as before in 2×10 ml of buffer and centrifuged for 10 min at 40,000×g.
The final pellet is homogenized in 20 mM Hepes pH: 7.4 (100 ml per g of original tissue) and used for binding assay. Aliquots of 0.5 ml is added 25 μl of test solution and 25 μl of ^3 H-Oxotremorine (1.0 nM, final concentration) mixed and incubated for 30 min at 25° C. […] After incubation samples are added 5 ml of ice-cold buffer and poured directly onto Whatman GF/C glass fiber filters under suction and immediately washed 2 times with 5 ml of ice-cold buffer. The amount of radioactivity on the filters are determined by conventional liquid scintillation counting. Specific binding is total binding minus non specific binding.
Test substances are dissolved in 10 ml water (if necessary heated on a steambath for less than 5 minutes) at a concentration of 2.2 mg/ml. 25-75% inhibition of specific binding must be obtained before calculation of IC50.
[formula] where Co is specific binding in control assays and Cx is the specific binding in the test assay. (The calculations assume normal mass-action kinetics).

For data set [2] the following is noted: in vivo; cited from earlier work.
For data set [3], the system named is central and peripheral muscarinic effects. Conditions: in vivo; cited from earlier work.
The conditions of data set [4]: in vivo; cited from earlier work. This is another data set of the same source.
The target of data set [5] is muscarinic receptor in the CNS. Conditions: read-out: affinity of ^3 H-Oxo site, cited from earlier work.

Regarding `CCCCCCOc1nccnc1[C@H]1CN2CC[C@@H]1C2` (relative stereo) [Compound 27, Endo-3-(3-hexyloxypyrazinyl)-1-azabicyclo[2.2.2]heptane hydrochlorid hemihydrate], in data set [1], the IC50 was 46 nM.

In the case of `CCCCCCOc1nccnc1[C@@H]1CN2CC[C@@H]1C2` (relative stereo) [Compound 28, Exo-3-(3-hexyloxypyrazinyl)-1-azabicyclo[2.2.1]heptane hydrochloride], the IC50 in data set [1] was 5.6 nM.

For the compound `COC(=O)C1=CCCN(C)C1` [Arecoline, methyl 1-methyl-1,2,5,6-tetrahydropyridine-3-carboxylate], the toxicity result in data set [2] is “rather toxic”. For the same compound, the “separation between central and peripheral muscarinic effects” value in data set [3] was “small separation”. In data set [4], the biological half life entry is “very short”.

Regarding `FC(F)(F)C(F)(F)C(F)(F)C(F)(F)CCOc1nccnc1C1=CN2CCC1CC2` [Compound 24, 3-(3-(3,3,4,4,5,5,6,6,6)nonafluorohexyloxypyrazinyl)-1-azabicyclo[2.2.2]oct-2-ene hydrochloride], the IC50 in data set [1] was 490 nM.

Consider `CCCCCOc1nccnc1C1CN2CCC1CC2` (stereo not shown) [Compound 25, 3-(3-Pentyloxypyrazinl)-1-azabicyclo[2.2.2]octane hydrochloride], for which the IC50 in data set [1] was 6 nM.

Take `C[N+](C)(C)CC#CCN1CCCC1=O` [^3 H-Oxo]: the Kd in data set [5] (first of three sites (high affinity)) was 1.8 nM; in data set [5] (second of three sites (medium affinity)), 20 nM; in data set [5] (third of three sites, not determined under the present conditions), 3000 nM.
